Laboratory results taken from US20170182087A1, “MAIN CHAIN POLYAMINES” (priority 2014, published 2017).

The substances below were run on human renal proximal tubule epithelial cells (RPTEC) (assay: Cytotoxicity Assay, RPTEC Cells).
Assay type: cell-based
Procedure: Cells were plated at 3,000 cells/well (RPTEC) in 96-well plates and were incubated overnight at 37° C. The compounds were added to the wells, and the cells were incubated for 4 days. Alomar Blue was added to one set of plates and incubated for 4 hours. The plates were read when the compound was added (time zero) and at the end of the study. Fluorescence was read using 530 nm (excitation) and 590 nm (emission) according to the manufacturer's instructions.

Substance	Cytotoxicity (Kidney Epithelial IC50)
Poly(1,3-bis(1-pentyl-piperidin-4-yl)propane [4,4′-Trimethylenedipiperidine/Glutaraldehyde >10K]	1.5 µg/mL
Poly(1,3-bis(1-pentyl-piperidin-4-yl)propane [Poly(4,4′-Trimethylenedipiperidine/Glutaraldehyde (1:1)), >1]	2 µg/mL
Poly(1,3-bis N-(1,4-dimethybenzene)piperidin-4-yl)propane)	1.5 µg/mL
Poly(1,3-bis(1-pentyl-piperidin-4-yl)propane [4,4′-Trimethylenedipiperidine/Glutaraldehyde (1:2.5) <10K]	2 µg/mL
Poly((1,1′-dipentyl)-4,4-dipiperidine) [Poly(1:1 Dipiperidine:Glutaraldehyde); <10K molecular weight]	2 µg/mL
Poly(1,3-bis(1-pentyl-piperidin-4-yl)propane [Poly(4,4′-Trimethylenedipiperidine/Glutaraldehyde (1:1)), <1]	2 µg/mL
Poly(1,3-bis(1-pentyl-piperidin-4-yl)propane [4,4′-Trimethylenedipiperidine/Glutaraldehyde (1:1.5) <10K]	4 µg/mL
Poly(1,3-bis(1,5-dimethybenzene)piperidin-4-yl)propane)	1.5 µg/mL
Poly((1,1′-dipentyl)-4,4-dipiperidine) [4,4′-dipiperidine/Glutaraldehyde <10K]	1.5 µg/mL
Poly(1,3-bis(1-pentyl-piperidin-4-yl)propane [4,4′-Trimethylenedipiperidine/Glutaraldehyde (1:1.5) >10K]	5 µg/mL
Poly(1,3-bis(1-pentyl-piperidin-4-yl)propane [4,4′-Trimethylenedipiperidine/Glutaraldehyde (1:3.5) <10K]	2 µg/mL
Poly(1,3-bis(1-pentyl-piperidin-4-yl)propane [4,4′-Trimethylenedipiperidine/Glutaraldehyde <10K]	331 µg/mL
